Laboratory results from PMC8100298, “Histone deacetylase inhibitor resminostat in combination with sorafenib counteracts platelet-mediated pro-tumoral effects in hepatocellular carcinoma” (Scientific Reports, 2021).
Read-outs that look alike come from different tables or passages of the source.

Assays:
Assay in all cases: Efficacy screening assay
Format in all cases: cell-based
[1] = tested on: CALU6; conditions: CALU6, lung
Experimental: (§1) The experiment was performed by Oncolead GmbH & Co. KG (Karlsfeld , Germany), based on a standardized screening procedure . Cell lines were purchased directly from the ATCC, NCI and DSMZ cell line c ollections. Cells used for the study had undergone less than 20 passages. To ensure the absence of potential contamination and wrong assignment, all cell lines were tested using a whole genome assay (Agilent, USA). All cell lines were grown as recommended by the suppliers and with addition of 100 U/mL penicillin G and 100 µg/mL; streptomycin. Cell growth and treatments were performed in Nunclon D 96 -well plates (NUNC, Germany). The optimal seeding density for each cell line was determined to ensure exponential growth for the duration of the experiment. All cells growing without anti-cancer agents were sub-conﬂuent by the end of the treatment, as determined by visual inspection.
(§2) After an initial 24 h pre-growth period, the compounds were added. The vehicle concentration […]
(§3) was 0.1% DMSO. After incubation at 37°C for 72 h, the culture medium was aspirated, and the cells were precipitated by the addition of 10% trichloroacetic acid (Sigma-Aldrich, Missouri, US). After overnight incubation at 4°C, the plates were washed three times with deionized water. The precipitates were then stained with SRB (0.4% wt/v sulforhodamine B solution in 1% acetic acid, Sigma-Aldrich, Missouri, US). Afterwards, the plates were washed six times with 1% acetic acid to remove unbound stain. After drying the plates at room temperature, the bound SRB was solubilized with 10 mM Tris base and the optical density was measured at 520 nm using a Victor2 plate reader (Perkin Elmer, Germany). Blank OD values were subtracted from mean OD values for each concentration. The nonlinear curve ﬁtting and EC50 calculations were per formed using XLﬁt and algorithm “205” (ID Business […]
(§4) For comparison of EC50 values in Figure 1F, one-way ANOVA with multiple comparison testing (Tukey) was performed. Multiplicity adjusted p -values for the EC50 with sorafenib versus resminostat for each cell line and comparison between cell lines for sorafenib are presented (95% confidence interval for significance testing). For comparison of EC50 data in Figure 2B, one-way ANOVA with multiple comparison testing (Tukey) was performed. Multiplicity adjusted p-values with 95% confidence interval was applied. For the invasion assays in Figure 4, one-way ANOVA with multiple comparison testing (Tukey) was performed. Multiplicity adjusted p-values with 95% confidence interval was applied. The adjusted p-values comparing vehicle control without vs. with platelets and compound

[2] = tested on: PANC1; conditions: PANC1, pancreas
Experimental: as §1, §2, §3, §4

[3] = tested on: HCT15; conditions: HCT15, colon
Experimental: as §1, §2, §3, §4

[4] = tested on: SKBR3; conditions: SKBR3, breast
Experimental: as §1, §2, §3, §4

[5] = tested on: SKNSH; conditions: 72 h, brain
Experimental: as §1, §2, §3, §4

[6] = tested on: PC3; conditions: Homo sapiens, PC-3, PC3, prostate, 72 h
Experimental: as §1, §2, §3, §4

[7] = tested on: HT29; conditions: HT29, colon
Experimental: as §1, §2, §3, §4

[8] = tested on: COLO678; conditions: Homo sapiens, COLO-678, COLO678, colon, 72 h
Experimental: as §1, §2, §3, §4

[9] = tested on: SNB75; conditions: SNB75, brain
Experimental: as §1, §2, §3, §4

[10] = tested on: CLS439
Experimental: as §1, §2, §3, §4

[11] = tested on: NCIH460; conditions: NCIH460, lung
Experimental: as §1, §2, §3, §4

[12] = tested on: HELA; conditions: 72 h, cervix
Experimental: as §1, §2, §3, §4

[13] = tested on: OVCAR4; conditions: OVCAR4, ovary
Experimental: as §1, §2, §3, §4

[14] = tested on: RDES; conditions: 72 h, bone
Experimental: as §1, §2, §3, §4

[15] = tested on: MT3; conditions: MT3, breast
Experimental: as §1, §2, §3, §4

[16] = tested on: EJ28; conditions: EJ28, bladder
Experimental: as §1, §2, §3, §4

[17] = tested on: HCT116; conditions: HCT116, colon
Experimental: as §1, §2, §3, §4

[18] = log of EC50, negative, read-out: log(EC50) (converted)

Q: With `CN(C)Cc1ccc(S(=O)(=O)n2ccc(/C=C/C(=O)NO)c2)cc1` [resminostat, Resminostat] as the compound, how does the EC50 ([1]; 72 h, read-out: EC50) read?
A: 2.93 µM

Q: And the EC50 ([1]; Homo sapiens, Calu-6, 72 h, log of EC50, negative, read-out: log(EC50) (converted))?
A: 2.95 µM

Q: And the EC50 ([1]; Homo sapiens, Calu-6, 72 h, read-out: EC50)?
A: 2.93 µM

Q: What about the EC50 ([2]; Homo sapiens, PANC-1, 72 h, log of EC50, negative, read-out: log(EC50) (converted)) of the same compound?
A: 6.76 µM

Q: And the EC50 ([2]; Homo sapiens, PANC-1, 72 h, read-out: EC50)?
A: 6.79 µM

Q: What about the EC50 ([2]; 72 h, read-out: EC50) of the same compound?
A: 6.79 µM

Q: What about the EC50 ([3]; 72 h, read-out: EC50) of the same compound?
A: 2.07 µM

Q: What about the EC50 ([3]; Homo sapiens, HCT-15, 72 h, log of EC50, negative, read-out: log(EC50) (converted)) of the same compound?
A: 2.09 µM

Q: And the EC50 ([3]; Homo sapiens, HCT-15, 72 h, read-out: EC50)?
A: 2.07 µM

Q: What about the EC50 ([4]; Homo sapiens, SK-BR-3, 72 h, log of EC50, negative, read-out: log(EC50) (converted)) of the same compound?
A: 0.933 µM

Q: What about the EC50 ([4]; Homo sapiens, SK-BR-3, 72 h, read-out: EC50) of the same compound?
A: 0.93 µM

Q: And the EC50 ([4]; 72 h, read-out: EC50)?
A: 0.93 µM

Q: What about the EC50 ([5]; Homo sapiens, SK-N-SH, log of EC50, negative, read-out: log(EC50) (converted)) of the same compound?
A: 3.63 µM

Q: And the EC50 ([5]; Homo sapiens, SK-N-SH, read-out: EC50)?
A: 3.67 µM

Q: What about the EC50 ([5]; read-out: EC50) of the same compound?
A: 3.67 µM

Q: What about the EC50 [6, 18] of the same compound?
A: 1.7 µM

Q: And the EC50 ([6]; read-out: EC50)?
A: 1.69 µM

Q: And the EC50 ([7]; 72 h, read-out: EC50)?
A: 3 µM

Q: And the EC50 ([7]; Homo sapiens, HT-29, 72 h, log of EC50, negative, read-out: log(EC50) (converted))?
A: 3.02 µM

Q: And the EC50 ([7]; Homo sapiens, HT-29, 72 h, read-out: EC50)?
A: 3 µM

Q: And the EC50 [8, 18]?
A: 7.59 µM

Q: What about the EC50 ([8]; read-out: EC50) of the same compound?
A: 7.62 µM

Q: And the EC50 ([9]; Homo sapiens, SNB-75, 72 h, log of EC50, negative, read-out: log(EC50) (converted))?
A: 6.76 µM

Q: And the EC50 ([9]; Homo sapiens, SNB-75, 72 h, read-out: EC50)?
A: 6.75 µM

Q: And the EC50 ([9]; 72 h, read-out: EC50)?
A: 6.75 µM

Q: And the EC50 ([10]; 72 h, CLS439, bladder, log of EC50, negative, read-out: log(EC50) (converted))?
A: 0.776 µM

Q: And the EC50 ([10]; 72 h, CLS439, bladder, read-out: EC50)?
A: 0.781 µM

Q: What about the EC50 ([10]; CLS439, bladder; 72 h; read-out: EC50) of the same compound?
A: 0.78 µM

Q: What about the EC50 ([11]; Homo sapiens, NCI-H460, 72 h, log of EC50, negative, read-out: log(EC50) (converted)) of the same compound?
A: 2.14 µM

Q: And the EC50 ([11]; Homo sapiens, NCI-H460, 72 h, read-out: EC50)?
A: 2.12 µM

Q: And the EC50 ([11]; 72 h, read-out: EC50)?
A: 2.12 µM

Q: And the EC50 ([12]; Homo sapiens, HeLa, log of EC50, negative, read-out: log(EC50) (converted))?
A: 3.31 µM

Q: And the EC50 ([12]; Homo sapiens, HeLa, read-out: EC50)?
A: 3.31 µM

Q: What about the EC50 ([12]; read-out: EC50) of the same compound?
A: 3.32 µM

Q: And the EC50 ([13]; Homo sapiens, OVCAR-4, 72 h, log of EC50, negative, read-out: log(EC50) (converted))?
A: 4.07 µM

Q: What about the EC50 ([13]; Homo sapiens, OVCAR-4, 72 h, read-out: EC50) of the same compound?
A: 4.04 µM

Q: And the EC50 ([13]; 72 h, read-out: EC50)?
A: 4.04 µM

Q: What about the EC50 ([14]; RD-ES, log of EC50, negative, read-out: log(EC50) (converted)) of the same compound?
A: 3.55 µM

Q: And the EC50 ([14]; RD-ES, read-out: EC50)?
A: 3.57 µM

Q: What about the EC50 ([14]; read-out: EC50) of the same compound?
A: 3.57 µM

Q: And the EC50 ([15]; 72 h, read-out: EC50)?
A: 1.89 µM

Q: And the EC50 ([15]; MT-3, 72 h, log of EC50, negative, read-out: log(EC50) (converted))?
A: 1.91 µM

Q: And the EC50 ([15]; MT-3, 72 h, read-out: EC50)?
A: 1.89 µM

Q: What about the EC50 ([16]; 72 h, read-out: EC50) of the same compound?
A: 4.59 µM

Q: What about the EC50 ([16]; Homo sapiens, EJ-28, 72 h, log of EC50, negative, read-out: log(EC50) (converted)) of the same compound?
A: 4.57 µM

Q: And the EC50 ([16]; Homo sapiens, EJ-28, 72 h, read-out: EC50)?
A: 4.59 µM

Q: And the EC50 ([17]; 72 h, read-out: EC50)?
A: 0.79 µM

Q: And the EC50 ([17]; Homo sapiens, HCT-116, 72 h, log of EC50, negative, read-out: log(EC50) (converted))?
A: 0.794 µM

Q: What about the EC50 ([17]; Homo sapiens, HCT-116, 72 h, read-out: EC50) of the same compound?
A: 0.792 µM
